System: participants with SSc-RP
Experiment: Frequency of weekly RP attacks (all attacks; primary efficacy endpoint)
Format: in vivo, human
Conditions: for Weekly RP Attacks (All Attacks) Change from Baseline, Mean / Weekly RP Attacks (All Attacks) Change from Baseline, Median / Weekly RP Attacks (All Attacks) Percent Change from Baseline, Mean / Weekly RP Attacks (All Attacks) Percent Change from Baseline, Median / Weekly RP Attacks (All Attacks), Mean / Weekly RP Attacks (All Attacks), Median: Excluding Outliers, by Baseline RCS, ITT Part A; for Weekly RP Attacks Change from Baseline, Max / Weekly RP Attacks Change from Baseline, Mean (SD) / Weekly RP Attacks Change from Baseline, Median / Weekly RP Attacks Change from Baseline, Min / Weekly RP Attacks Change from Baseline, Q1 / Weekly RP Attacks Change from Baseline, Q3 / Weekly RP Attacks Percent Change from Baseline, Max / Weekly RP Attacks Percent Change from Baseline, Mean (SD) / Weekly RP Attacks Percent Change from Baseline, Median / Weekly RP Attacks Percent Change from Baseline, Min / Weekly RP Attacks Percent Change from Baseline, Q1 / Weekly RP Attacks Percent Change from Baseline, Q3 / Weekly RP Attacks, Max / Weekly RP Attacks, Mean (SD) / Weekly RP Attacks, Median / Weekly RP Attacks, Min / Weekly RP Attacks, Q1 / Weekly RP Attacks, Q3: all attacks, excluding outliers, tadalafil 5 mg daily
Excerpt: Percent change from baseline evaluation for frequency of weekly RP attacks were or will be used as the primary efficacy variable. The sponsor-developed participant-informed diary will be used to record data. Frequency of weekly RP attacks is defined as the total number of RP attacks divided by the number of days with available diary data within the last 7 days of each dosing period then multiplied by 7. Total number of RP attacks during the last 7 days of screening period divided by the number of days with available data then multiplied by 7 will be used as baseline for the analysis of all periods. The variable will be calculated as follows:
Percentage change={(weekly RP attacks for the last 7 days of each dosing period−Baseline weekly RP attacks)/Baseline weekly RP attacks}*100%.
Absolute change=weekly RP attacks for the last 7 days of each dosing period−Baseline weekly RP attacks
Percent change from baseline evaluation for frequency of weekly RP attacks was and will be the primary efficacy endpoint. Frequency of weekly RP attacks is defined as the total number of RP attacks divided by the number of days with available diary data within the last 7 days of each dosing period then multiplied by 7. Total number of RP attacks during the last 7 days of screening period divided by the number of days with available data then multiplied by 7 will be used as baseline for the analysis of all periods.
Percent change from baseline evaluation for frequency of weekly RP attacks were the primary efficacy endpoint. Data collected in the last 7 days of each dosing period were used for this analysis. Screening assessments were used as baseline for the analysis of all periods. No multiple comparison adjustment were used to control alpha for the multiple comparisons. Mixed effects model were used for analysis of the primary endpoint according to the crossover design. Other efficacy endpoints of continuous variables were analyzed using similar methodology. For nominal data, chi-square tests were applied. Generalized Estimating Equations method were used, as appropriate, for adjusting for potential confounding factors. In addition, the final analysis assessed whether in this study of severe Raynaud's disease participants, the minimally important difference, previously concluded of 14-15 points on the 100 point RCS scale had been achieved in the cilnidipine dose group. It also recorded the percentage of participants achieving a PASS (34 point difference from baseline on a 0-100 VAS) in each treatment group.

[1] = Cilnidipine 10 mg, n=1, first subgroup
[2] = Cilnidipine 20 mg (n=3), subgroup n = 2
[3] = Cilnidipine 20 mg, n=2, first subgroup
[4] = Pooled Cilnidipine 10 mg and Cilnidipine 10 mg + Tadalafil 5 mg, n=1, second subgroup
[5] = Pooled Cilnidipine 10 mg and Cilnidipine 10 mg + Tadalafil 5 mg, n=2, first subgroup
[6] = Pooled Cilnidipine 20 mg and Cilnidipine 20 mg + Tadalafil 5 mg, n=1, second subgroup
[7] = Pooled Cilnidipine 20 mg and Cilnidipine 20 mg + Tadalafil 5 mg, n=3, first subgroup
[8] = Pooled Cilnidipine (n = 7), subgroup n = 2
[9] = Pooled Cilnidipine, n=3, first subgroup
[10] = pooled cilnidipine 10 mg and 20 mg

## COCCOC(=O)C1=C(C)NC(C)=C(C(=O)OC/C=C/c2ccccc2)C1c1cccc([N+](=O)[O-])c1 (stereo not drawn) [Cilnidipine, cilnidipine]
10 mg of cilnidipine (n=3 for both doses)
  reduction in weekly frequency of typical Raynaud attacks: 28%
20 mg of cilnidipine (n=3 for both doses)
  reduction in weekly frequency of typical Raynaud attacks: 46%
[1]
  Weekly RP Attacks (All Attacks) Change from Baseline, Mean: −9.00
  Weekly RP Attacks (All Attacks) Change from Baseline, Median: −9.00
  Weekly RP Attacks (All Attacks) Percent Change from Baseline, Mean: −28.13%
  Weekly RP Attacks (All Attacks) Percent Change from Baseline, Median: −28.13%
  Weekly RP Attacks (All Attacks), Mean: 23.00
  Weekly RP Attacks (All Attacks), Median: 23.00
Cilnidipine 20 mg (n=3), subgroup n = 1
  Subgroup Baseline RCS, <3.5 baseline: <3.5 baseline −42%
[2]
  Subgroup Baseline RCS, >3.5-7.5 baseline: >3.5-7.5 baseline −43%
  Subgroup attack frequency, <10 baseline: <10 baseline −29%
  Subgroup attack frequency, >10 baseline: >10 baseline −50%
[3]
  Weekly RP Attacks (All Attacks) Change from Baseline, Mean: −6.67
  Weekly RP Attacks (All Attacks) Change from Baseline, Median: −6.67
  Weekly RP Attacks (All Attacks) Percent Change from Baseline, Mean: −45.71%
  Weekly RP Attacks (All Attacks) Percent Change from Baseline, Median: −45.71%
  Weekly RP Attacks (All Attacks), Mean: 8.00
  Weekly RP Attacks (All Attacks), Median: 8.00
Cilnidipine (20 mg) (n = 3)
  Mean % reduction of weekly attacks from baseline: 43%
  Mean weekly attacks at baseline: 12.7
  Weekly attack frequency: −43%
  Weekly attack frequency, If baseline RCS <3.5: −42%
[4]
  Weekly RP Attacks (All Attacks) Change from Baseline, Mean: −5.00
  Weekly RP Attacks (All Attacks) Change from Baseline, Median: −5.00
  Weekly RP Attacks (All Attacks) Percent Change from Baseline, Mean: −45.45%
  Weekly RP Attacks (All Attacks) Percent Change from Baseline, Median: −45.45%
  Weekly RP Attacks (All Attacks), Mean: 6.00
  Weekly RP Attacks (All Attacks), Median: 6.00
[5]
  Weekly RP Attacks (All Attacks) Change from Baseline, Mean: −6.50
  Weekly RP Attacks (All Attacks) Change from Baseline, Median: −6.50
  Weekly RP Attacks (All Attacks) Percent Change from Baseline, Mean: −36.28%
  Weekly RP Attacks (All Attacks) Percent Change from Baseline, Median: −36.28%
  Weekly RP Attacks (All Attacks), Mean: 14.00
  Weekly RP Attacks (All Attacks), Median: 14.00
[6]
  Weekly RP Attacks (All Attacks) Change from Baseline, Mean: −1.83
  Weekly RP Attacks (All Attacks) Change from Baseline, Median: −1.83
  Weekly RP Attacks (All Attacks) Percent Change from Baseline, Mean: −14.29%
  Weekly RP Attacks (All Attacks) Percent Change from Baseline, Median: −14.29%
  Weekly RP Attacks (All Attacks), Mean: 11.00
  Weekly RP Attacks (All Attacks), Median: 11.00
[7]
  Weekly RP Attacks (All Attacks) Change from Baseline, Mean: −5.78
  Weekly RP Attacks (All Attacks) Change from Baseline, Median: −4.33
  Weekly RP Attacks (All Attacks) Percent Change from Baseline, Mean: −37.49%
  Weekly RP Attacks (All Attacks) Percent Change from Baseline, Median: −45.00%
  Weekly RP Attacks (All Attacks), Mean: 10.33
  Weekly RP Attacks (All Attacks), Median: 11.00
Pooled Cilnidipine (n = 7)
  Weekly attack frequency: −41%
  Weekly attack frequency, If baseline RCS <3.5: −27%
Pooled Cilnidipine (n = 7), subgroup n = 1
  Subgroup Baseline RCS, 3.5-7.5 baseline: 3.5-7.5 baseline −86%
[8]
  Subgroup attack frequency, <10 baseline: <10 baseline −55%
  Subgroup attack frequency, >10 baseline: >10 baseline −28%
Pooled Cilnidipine (n = 7), subgroup n = 3
  Subgroup Baseline RCS, <3.5 baseline: <3.5 baseline −27%
[9]
  Weekly RP Attacks (All Attacks) Change from Baseline, Mean: −7.44
  Weekly RP Attacks (All Attacks) Change from Baseline, Median: −9.00
  Weekly RP Attacks (All Attacks) Percent Change from Baseline, Mean: −39.85%
  Weekly RP Attacks (All Attacks) Percent Change from Baseline, Median: −45.00%
  Weekly RP Attacks (All Attacks), Mean: 13.00
  Weekly RP Attacks (All Attacks), Median: 11.00
Cilnidipine 10 mg
  Weekly RP Attacks Change from Baseline, Max: −9.0, −9.0
  Weekly RP Attacks Change from Baseline, Mean (SD): −9.00
  Weekly RP Attacks Change from Baseline, Median: −9.00
  Weekly RP Attacks Change from Baseline, Min: −9.0, −9.0
  Weekly RP Attacks Change from Baseline, Q1: −9.00, −9.00
  Weekly RP Attacks Change from Baseline, Q3: −9.00, −9.00
  Weekly RP Attacks Percent Change from Baseline, Max: −28.1, −28.1%
  Weekly RP Attacks Percent Change from Baseline, Mean (SD): −28.13%
  Weekly RP Attacks Percent Change from Baseline, Median: −28.13%
  Weekly RP Attacks Percent Change from Baseline, Min: −28.1, −28.1%
  Weekly RP Attacks Percent Change from Baseline, Q1: −28.13, −28.13%
  Weekly RP Attacks Percent Change from Baseline, Q3: −28.13, −28.13%
  Weekly RP Attacks, Max: 23.0, 23.0
  Weekly RP Attacks, Mean (SD): 23.00
  Weekly RP Attacks, Median: 23.00
  Weekly RP Attacks, Min: 23.0, 23.0
  Weekly RP Attacks, Q1: 23.00, 23.00
  Weekly RP Attacks, Q3: 23.00, 23.00
Cilnidipine 20 mg
  Weekly RP Attacks Change from Baseline, Max: −4.3
  Weekly RP Attacks Change from Baseline, Mean (SD): −6.67 (3.300)
  Weekly RP Attacks Change from Baseline, Median: −6.67
  Weekly RP Attacks Change from Baseline, Min: −9.0
  Weekly RP Attacks Change from Baseline, Q1: −9.00
  Weekly RP Attacks Change from Baseline, Q3: −4.33
  Weekly RP Attacks Percent Change from Baseline, Max: −45.0%
  Weekly RP Attacks Percent Change from Baseline, Mean (SD): −45.71 (1.010) Percent
  Weekly RP Attacks Percent Change from Baseline, Median: −45.71%
  Weekly RP Attacks Percent Change from Baseline, Min: −46.4%
  Weekly RP Attacks Percent Change from Baseline, Q1: −46.43%
  Weekly RP Attacks Percent Change from Baseline, Q3: −45.00%
  Weekly RP Attacks, Max: 11.0
  Weekly RP Attacks, Mean (SD): 8.00 (4.243)
  Weekly RP Attacks, Median: 8.00
  Weekly RP Attacks, Min: 5.0
  Weekly RP Attacks, Q1: 5.00
  Weekly RP Attacks, Q3: 11.00
[10]
  Weekly RP Attacks Change from Baseline, Max: −4.3
  Weekly RP Attacks Change from Baseline, Mean (SD): −7.44 (2.694)
  Weekly RP Attacks Change from Baseline, Median: −9.00
  Weekly RP Attacks Change from Baseline, Min: −9.0
  Weekly RP Attacks Change from Baseline, Q1: −9.00
  Weekly RP Attacks Change from Baseline, Q3: −4.33
  Weekly RP Attacks Percent Change from Baseline, Max: −28.1%
  Weekly RP Attacks Percent Change from Baseline, Mean (SD): −39.85 (10.180) Percent
  Weekly RP Attacks Percent Change from Baseline, Median: −45.00%
  Weekly RP Attacks Percent Change from Baseline, Min: −46.4%
  Weekly RP Attacks Percent Change from Baseline, Q1: −46.43%
  Weekly RP Attacks Percent Change from Baseline, Q3: −28.13%
  Weekly RP Attacks, Max: 23.0
  Weekly RP Attacks, Mean (SD): 13.00 (9.165)
  Weekly RP Attacks, Median: 11.00
  Weekly RP Attacks, Min: 5.0
  Weekly RP Attacks, Q1: 5.00
